From publication PMC10840383, “Clinical features, functional consequences, and rescue pharmacology of missense GRID1 and GRID2 human variants” (Human Molecular Genetics, 2023)
Substitutions are numbered along the chain they refer to. “And” between values parts separate entries of the source, which are not always exact repeats. Equal entries are not always repeated. Where two headings read alike, the source gives them in different places.

Assays:
Assay type in all cases: cell-based
GluD2-L656V = target: T1, GluD2-L656V (Rattus norvegicus, UniProt Q63226, L656V); assay: TEVC of constitutive current, Xenopus oocytes expressing GluD2-L656V
T1 construct: expressed in transfected cells; host or cells: Xenopus laevis oocytes injected with cRNA
T1 sequence (Q63226 24-1007 L656V): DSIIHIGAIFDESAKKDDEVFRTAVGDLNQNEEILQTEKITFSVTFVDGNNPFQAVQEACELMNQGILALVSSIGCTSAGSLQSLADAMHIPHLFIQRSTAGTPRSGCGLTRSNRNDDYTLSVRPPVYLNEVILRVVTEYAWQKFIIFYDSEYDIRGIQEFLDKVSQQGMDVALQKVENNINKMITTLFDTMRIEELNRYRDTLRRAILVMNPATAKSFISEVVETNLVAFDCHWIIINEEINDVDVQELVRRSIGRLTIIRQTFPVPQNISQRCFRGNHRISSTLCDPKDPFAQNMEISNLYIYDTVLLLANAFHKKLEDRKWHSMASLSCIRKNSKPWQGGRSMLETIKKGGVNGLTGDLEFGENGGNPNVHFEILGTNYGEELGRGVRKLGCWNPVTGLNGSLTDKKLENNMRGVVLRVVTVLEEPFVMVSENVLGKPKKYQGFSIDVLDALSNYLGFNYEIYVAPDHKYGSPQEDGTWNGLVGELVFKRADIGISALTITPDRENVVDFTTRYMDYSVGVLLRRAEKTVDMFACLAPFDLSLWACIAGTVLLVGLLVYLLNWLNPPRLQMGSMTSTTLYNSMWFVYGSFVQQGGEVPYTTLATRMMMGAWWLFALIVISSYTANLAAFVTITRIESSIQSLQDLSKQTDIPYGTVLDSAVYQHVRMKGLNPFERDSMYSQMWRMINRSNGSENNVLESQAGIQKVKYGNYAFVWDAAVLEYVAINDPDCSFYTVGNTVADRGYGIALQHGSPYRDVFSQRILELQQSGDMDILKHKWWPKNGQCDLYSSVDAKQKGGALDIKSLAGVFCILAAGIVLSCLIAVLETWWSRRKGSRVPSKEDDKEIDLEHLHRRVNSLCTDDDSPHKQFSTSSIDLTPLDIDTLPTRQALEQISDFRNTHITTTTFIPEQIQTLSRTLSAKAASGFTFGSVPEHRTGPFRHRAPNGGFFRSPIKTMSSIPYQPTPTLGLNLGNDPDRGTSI

GluD2-T649A = target: T2, GluD2-T649A (Rattus norvegicus, UniProt Q63226, T649A); assay: TEVC of constitutive current, Xenopus oocytes expressing GluD2-T649A; conditions: for IC50: read-out: Pentamidine IC50
T2 construct: expressed in transfected cells; host or cells: Xenopus laevis oocytes injected with cRNA
T2 sequence (Q63226 24-1007 T649A): T1 sequence (Q63226 24-1007 L656V) with T626A, V633L

GluD2-D535E = target: T3, GluD2-D535E (Rattus norvegicus, UniProt Q63226, D535E); assay: TEVC of constitutive current, Xenopus oocytes expressing GluD2-D535E; conditions: positive = increase, negative = decrease of activity
T3 construct: expressed in transfected cells; host or cells: Xenopus laevis oocytes injected with cRNA
T3 sequence (Q63226 24-1007 D535E): T1 sequence (Q63226 24-1007 L656V) with D512E, V633L

[1] = normalized to NMDG+ − Na+ difference current
[2] = potentiation of constitutive current, read-out: Ca2+ EC50 [95% CI]
[3] = read-out: Ca2+ potentiation EC50
[4] = 10 mM D-serine, positive = increase, negative = decrease of activity
[5] = percent of constitutive leak current (NMDG+/Na+ difference current)
[6] = 100 μM pentamidine, positive = increase, negative = decrease of activity

[Ca+2] [Ca^2+]
Ca2+ % Max (NMDG+ − Na+) Mean ± SEM (GluD2-L656V; [1]): 260 ± 9.9 (11) % | EC50 (GluD2-L656V; [2]): 170 µM | Ca2+ EC50 A654T/EC50 variant (GluD2-L656V; ratio): 0.88 | EC50 (GluD2-L656V; [3]): 100 to 400 µM | Ca2+ EC50 of the relation Ca2+ concentration vs D-serine IC50 (GluD2-T649A; Hill fit, Fig. S7A): 630 µM | Hill slope of the relation Ca2+ concentration vs D-serine IC50 (GluD2-T649A; Hill fit, Fig. S7A): 1.4 | Ca2+ % Max (NMDG+ − Na+) Mean ± SEM (GluD2-T649A; [1]): 345 ± 55 (10) % | EC50 (GluD2-T649A; [2]): 290 µM | Ca2+ EC50 A654T/EC50 variant (GluD2-T649A; ratio): 0.52 | EC50 (GluD2-T649A; [3]): 100 to 400 µM

N[C@H](CO)C(=O)O [D-serine]
D-Serine effect (Baseline −10 mM D-Serine) (GluD2-D535E; 10 mM D-serine): −5.8 ± 2.4 (12) nA | Reduction of maximum possible activity (Na+ −NMDG+ difference current) by D-serine (GluD2-L656V; 10 mM D-serine): ~ 50% | D-Serine effect (Baseline −10 mM D-Serine) (GluD2-L656V; [4]): −460 ± 53 (12) nA | D-serine % Max (NMDG+ − Na+) Mean ± SEM (GluD2-L656V; [5]): 62 ± 3.2 (14) % | D-serine Hill slope (GluD2-T649A; 1 mM Ca2+, Fig. S7B): 2.0 | D-serine Maximum (GluD2-T649A; 1 mM Ca2+, Fig. S7B): 54% | D-Serine effect (Baseline −10 mM D-Serine) (GluD2-T649A; [4]): −35 ± 5.6 (14) nA | D-serine % Max (NMDG+ − Na+) Mean ± SEM (GluD2-T649A; [5]): 49 ± 2.5 (7) %

N=C(N)c1ccc(OCCCCCOc2ccc(C(=N)N)cc2)cc1 [Pentamidine, pentamidine]
Pentamidine effect (Baseline −100 μM Pentamidine) (GluD2-D535E; 100 μM pentamidine): −0.67 ± 1.1 (12) nA | Pentamidine effect (Baseline −100 μM Pentamidine) (GluD2-L656V; [6]): −640 ± 190 (12) nA | IC50 (GluD2-L656V; read-out: Pentamidine IC50): 10 µM | Pentamidine effect (Baseline −100 μM Pentamidine) (GluD2-T649A; [6]): −18 ± 4.8 (14) nA | Fold increase in pentamidine potency on GluD2-T649A compared to GluD2-A654T (GluD2-T649A; IC50 comparison): ~ 200 fold and > 200 fold | IC50 (GluD2-T649A; inhibition of constitutive channels): 0.037 µM | IC50 (GluD2-T649A; inhibition of constitutive current, 1 mM Ca2+): 0.036 µM
